Assays:
Histone deacetylase 8 = target: T1, Histone deacetylase 8 (Homo sapiens, UniProt Q9BY41); assay: Inhibition of HDAC8 (unknown origin) using fluorogenic tetrapeptide RHK(Ac)K(Ac) substrate by fluorescence assay
T1 sequence (Q9BY41 whole entry): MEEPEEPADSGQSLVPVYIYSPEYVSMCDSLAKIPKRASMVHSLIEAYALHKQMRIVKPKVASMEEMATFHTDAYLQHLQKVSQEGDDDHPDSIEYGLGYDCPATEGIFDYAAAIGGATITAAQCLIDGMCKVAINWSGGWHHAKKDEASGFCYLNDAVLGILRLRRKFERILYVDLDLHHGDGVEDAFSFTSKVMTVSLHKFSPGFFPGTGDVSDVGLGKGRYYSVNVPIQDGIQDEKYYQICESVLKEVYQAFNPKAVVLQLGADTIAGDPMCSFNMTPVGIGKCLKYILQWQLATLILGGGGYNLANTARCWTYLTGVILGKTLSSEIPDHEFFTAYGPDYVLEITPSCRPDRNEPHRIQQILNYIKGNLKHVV

Histone deacetylase 11 = target: T2, Histone deacetylase 11 (Homo sapiens, UniProt Q96DB2); assay: Inhibition of HDAC11 (unknown origin) using fluorogenic tetrapeptide RHKK(Ac) substrate by fluorescence assay
T2 sequence (Q96DB2 whole entry): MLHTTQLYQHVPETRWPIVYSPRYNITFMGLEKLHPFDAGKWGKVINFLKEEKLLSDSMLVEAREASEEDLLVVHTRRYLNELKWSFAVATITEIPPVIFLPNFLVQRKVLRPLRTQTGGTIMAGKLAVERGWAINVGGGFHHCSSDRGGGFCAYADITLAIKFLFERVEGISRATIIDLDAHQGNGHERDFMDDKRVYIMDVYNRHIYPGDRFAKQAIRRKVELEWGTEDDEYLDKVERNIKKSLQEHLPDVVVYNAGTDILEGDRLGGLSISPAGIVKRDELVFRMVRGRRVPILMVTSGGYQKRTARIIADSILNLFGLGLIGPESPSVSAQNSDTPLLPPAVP

Histone deacetylase 2 = Histone deacetylase 2 (Homo sapiens, UniProt Q92769); assay: Inhibition of HDAC2 (unknown origin) using fluorogenic tetrapeptide RHKK(Ac) substrate by fluorescence assay
Histone deacetylase 3 = Histone deacetylase 3 (Homo sapiens, UniProt O15379); assay: Inhibition of HDAC3 (unknown origin) using fluorogenic tetrapeptide RHKK(Ac) substrate by fluorescence assay
[1] = target: T3, Polyamine deacetylase HDAC10 (Homo sapiens, UniProt Q969S8); assay: Inhibition of HDAC10 (unknown origin) using fluorogenic tetrapeptide RHKK(Ac) substrate by fluorescence assay
T3 sequence (Q969S8 whole entry): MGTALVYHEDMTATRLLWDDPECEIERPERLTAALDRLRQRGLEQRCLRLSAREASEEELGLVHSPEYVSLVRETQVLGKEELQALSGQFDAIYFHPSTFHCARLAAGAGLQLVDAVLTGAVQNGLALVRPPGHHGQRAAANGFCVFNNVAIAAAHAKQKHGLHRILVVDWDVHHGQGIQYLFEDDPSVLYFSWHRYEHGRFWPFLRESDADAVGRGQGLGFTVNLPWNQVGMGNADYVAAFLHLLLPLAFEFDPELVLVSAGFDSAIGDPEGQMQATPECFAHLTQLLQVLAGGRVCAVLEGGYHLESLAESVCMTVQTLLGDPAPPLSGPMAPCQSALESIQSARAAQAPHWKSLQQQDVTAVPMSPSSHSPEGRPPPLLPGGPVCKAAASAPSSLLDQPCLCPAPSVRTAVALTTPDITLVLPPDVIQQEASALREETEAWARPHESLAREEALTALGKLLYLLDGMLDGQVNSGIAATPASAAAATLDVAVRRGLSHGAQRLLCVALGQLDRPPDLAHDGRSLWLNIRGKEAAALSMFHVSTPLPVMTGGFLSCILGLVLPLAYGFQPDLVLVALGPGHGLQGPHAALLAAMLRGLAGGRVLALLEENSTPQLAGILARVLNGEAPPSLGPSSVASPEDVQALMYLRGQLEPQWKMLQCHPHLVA

Histone deacetylase 1 = Histone deacetylase 1 (Homo sapiens, UniProt Q13547); assay: Inhibition of HDAC1 (unknown origin) using fluorogenic tetrapeptide RHKK(Ac) substrate by fluorescence assay
[2] = target: T4, Protein deacetylase HDAC6 (Homo sapiens, UniProt Q9UBN7); assay: Inhibition of HDAC6 (unknown origin) using fluorogenic tetrapeptide RHKK(Ac) substrate by fluorescence assay
T4 sequence (Q9UBN7 whole entry): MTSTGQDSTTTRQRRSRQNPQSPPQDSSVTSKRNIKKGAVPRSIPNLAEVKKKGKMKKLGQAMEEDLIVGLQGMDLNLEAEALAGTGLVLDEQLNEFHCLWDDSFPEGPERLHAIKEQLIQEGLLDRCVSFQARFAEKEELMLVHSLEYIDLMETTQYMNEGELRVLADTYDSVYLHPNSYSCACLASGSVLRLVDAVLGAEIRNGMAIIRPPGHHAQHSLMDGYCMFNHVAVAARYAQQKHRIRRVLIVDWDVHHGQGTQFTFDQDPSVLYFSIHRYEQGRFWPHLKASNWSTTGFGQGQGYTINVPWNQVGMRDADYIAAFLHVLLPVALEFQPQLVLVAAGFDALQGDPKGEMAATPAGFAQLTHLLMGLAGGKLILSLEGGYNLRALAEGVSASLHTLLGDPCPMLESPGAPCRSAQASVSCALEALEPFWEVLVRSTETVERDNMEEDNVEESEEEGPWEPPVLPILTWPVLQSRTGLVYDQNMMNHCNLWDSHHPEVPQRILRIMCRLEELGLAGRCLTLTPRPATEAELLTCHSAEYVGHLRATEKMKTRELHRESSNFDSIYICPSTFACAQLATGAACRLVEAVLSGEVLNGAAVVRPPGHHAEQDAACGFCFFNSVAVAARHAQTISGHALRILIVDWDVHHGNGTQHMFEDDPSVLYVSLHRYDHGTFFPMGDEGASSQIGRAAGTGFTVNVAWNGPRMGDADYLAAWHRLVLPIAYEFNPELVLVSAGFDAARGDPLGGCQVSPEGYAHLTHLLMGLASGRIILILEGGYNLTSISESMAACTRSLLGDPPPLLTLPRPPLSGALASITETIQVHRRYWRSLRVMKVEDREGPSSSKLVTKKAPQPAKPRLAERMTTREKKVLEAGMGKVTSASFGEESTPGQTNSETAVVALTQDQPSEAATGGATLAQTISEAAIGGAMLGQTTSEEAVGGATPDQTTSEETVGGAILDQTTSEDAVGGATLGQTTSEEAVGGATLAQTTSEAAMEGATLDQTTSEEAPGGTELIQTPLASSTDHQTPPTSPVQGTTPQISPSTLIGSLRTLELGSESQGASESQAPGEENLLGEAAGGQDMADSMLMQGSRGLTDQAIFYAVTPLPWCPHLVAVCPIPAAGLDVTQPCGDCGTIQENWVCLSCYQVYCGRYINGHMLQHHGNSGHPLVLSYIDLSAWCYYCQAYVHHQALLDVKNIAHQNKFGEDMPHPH

Sequence of Histone deacetylase 2 (Q92769 whole entry): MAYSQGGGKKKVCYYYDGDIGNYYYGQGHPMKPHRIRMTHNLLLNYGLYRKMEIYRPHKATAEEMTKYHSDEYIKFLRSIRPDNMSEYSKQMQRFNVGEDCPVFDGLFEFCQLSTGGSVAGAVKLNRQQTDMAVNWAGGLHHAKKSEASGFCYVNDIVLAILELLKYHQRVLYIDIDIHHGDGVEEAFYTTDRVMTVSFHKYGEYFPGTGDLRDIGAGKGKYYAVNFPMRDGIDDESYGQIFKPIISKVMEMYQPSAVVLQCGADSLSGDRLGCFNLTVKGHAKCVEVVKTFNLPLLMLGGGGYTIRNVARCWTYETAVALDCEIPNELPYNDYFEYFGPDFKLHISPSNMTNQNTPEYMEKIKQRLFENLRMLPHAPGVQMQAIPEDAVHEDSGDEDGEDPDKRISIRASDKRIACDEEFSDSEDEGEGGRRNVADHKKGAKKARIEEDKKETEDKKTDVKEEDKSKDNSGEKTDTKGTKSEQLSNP
Sequence of Histone deacetylase 3 (O15379 whole entry): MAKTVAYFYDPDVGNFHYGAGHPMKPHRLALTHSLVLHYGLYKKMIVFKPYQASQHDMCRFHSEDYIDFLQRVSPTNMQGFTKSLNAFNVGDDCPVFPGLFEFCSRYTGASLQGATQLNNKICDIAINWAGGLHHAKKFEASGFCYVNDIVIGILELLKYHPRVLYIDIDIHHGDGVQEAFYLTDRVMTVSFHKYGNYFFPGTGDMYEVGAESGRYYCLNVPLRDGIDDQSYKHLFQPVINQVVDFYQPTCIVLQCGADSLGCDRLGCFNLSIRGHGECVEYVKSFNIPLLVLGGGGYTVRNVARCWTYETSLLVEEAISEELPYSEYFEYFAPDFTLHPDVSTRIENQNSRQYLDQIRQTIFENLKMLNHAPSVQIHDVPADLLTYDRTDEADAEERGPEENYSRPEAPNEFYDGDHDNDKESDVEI
Sequence of Histone deacetylase 1 (Q13547 whole entry): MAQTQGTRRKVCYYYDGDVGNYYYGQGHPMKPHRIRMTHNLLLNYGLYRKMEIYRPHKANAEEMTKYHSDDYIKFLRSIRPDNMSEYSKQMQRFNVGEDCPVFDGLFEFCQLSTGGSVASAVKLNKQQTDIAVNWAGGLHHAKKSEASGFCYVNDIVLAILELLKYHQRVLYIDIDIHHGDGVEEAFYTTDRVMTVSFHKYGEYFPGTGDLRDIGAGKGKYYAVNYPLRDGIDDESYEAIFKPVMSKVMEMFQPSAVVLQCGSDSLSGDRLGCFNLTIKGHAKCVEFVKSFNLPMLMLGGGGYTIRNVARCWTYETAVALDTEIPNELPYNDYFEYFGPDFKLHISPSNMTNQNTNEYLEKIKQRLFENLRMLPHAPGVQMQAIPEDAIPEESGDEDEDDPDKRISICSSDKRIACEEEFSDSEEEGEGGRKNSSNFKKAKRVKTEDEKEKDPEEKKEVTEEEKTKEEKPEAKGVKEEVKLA

Row | Structure (SMILES) | IC50 (Histone deacetylase 8) [nM] | IC50 (Histone deacetylase 11) [nM] | IC50 (Histone deacetylase 2) [nM] | IC50 (Histone deacetylase 3) [nM] | IC50 [1] [nM] | IC50 (Histone deacetylase 1) [nM] | IC50 [2] [nM]
1 | Cc1cccc(NC(=O)[C@H](CCCCCS)NC(=O)[C@@H]2CCCC(=O)N2)c1 | 135 | 1 | 15 | 1 | 1 | 2 | 1
2 | O=C(CCCCCCS)NC1CCCC1 | 2330 | 776 | 6640 | 897 | 1170 | 865 | 87
3 | O=C1NC[C@@H](c2ccccc2)[C@@H]1C(=O)N[C@@H](CCCCCS)C(=O)Nc1ccccc1 | 40 | 4 | 37 | 2 | 5 | 7 | 4
4 | O=C1C[C@@H](C(=O)N[C@@H](CCCCCS)C(=O)Nc2ccccc2)N1 | 61 | 10 | 68 | 8 | 9 | 8 | 2
5 | CN1C(=O)CCC[C@H]1C(=O)N[C@@H](CCCCCS)C(=O)Nc1ccccc1 | 202 | 5 | 70 | 7 | 6 | 11 | 3
6 | Cc1cccc(NC(=O)[C@H](CCCCCS)NC(=O)[C@H]2CCC(=O)N2C)c1 | 99 | 12 | 5 | 5 | 2 | 3 | 1
7 | Cc1cccc(CCNC(=O)CCCCCCS)c1 | 246 | 1870 | 10700 | 2600 | 3930 | 3210 | 2710
8 | O=C1CC[C@H](C(=O)N[C@H](CCCCCS)C(=O)Nc2ccccc2)N1 | 8100 | 102 | 171 | 138 | 40 | 101 | 21
9 | O=C1NC[C@H](c2ccccc2)[C@@H]1C(=O)N[C@@H](CCCCCS)C(=O)Nc1ccccc1 | 310 | 13 | 168 | 9 | 14 | 32 | 4
10 | O=C(CCCCCCS)NCc1cccc(OCc2ccccc2)c1 | 904 | 1840 | 14000 | 2950 | 2990 | 3160 | 1770
11 | O=C1NC[C@H](c2ccccc2)[C@H]1C(=O)N[C@@H](CCCCCS)C(=O)Nc1ccccc1 | 2040 | 12 | 2230 | 55 | 7 | 53 | 160
12 | Cc1cccc(NC(=O)[C@H](CCCCCS)NC(=O)[C@@H]2CCC(=O)N2)c1 | 106 | 62 | 13 | 4 | 5 | 5 | 1
13 | O=C1NC[C@@H](c2ccccc2)[C@H]1C(=O)N[C@@H](CCCCCS)C(=O)Nc1ccccc1 | 2570 | 24 | 1900 | 72 | 14 | 74 | 35
14 | CN1C(=O)CC[C@@H]1C(=O)N[C@@H](CCCCCS)C(=O)Nc1ccccc1 | 545 | 67 | 103 | 49 | 116 | 58 | 5
15 | O=C1NCCC[C@@H]1C(=O)N[C@@H](CCCCCS)C(=O)Nc1ccccc1 | 122 | 15 | 48 | 5 | 11 | 12 | 1
16 | Cc1cccc(NC(=O)[C@H](CCCCCS)NC(=O)[C@H]2CCC(=O)N2)c1 | 106 | 5 | 14 | 3 | 4 | 4 | 2
17 | O=C1CCC[C@@H](C(=O)N[C@@H](CCCCCS)C(=O)NCc2ccc(C(F)(F)F)cc2)N1 | 23 | 140 | 1770 | 475 | 310 | 386 | 139
18 | O=C1CC[C@@H](C(=O)N[C@@H](CCCCCS)C(=O)Nc2ccccc2)N1 | 59 | 30 | 33 | 13 | 15 | 24 | 1
19 | O=C1CCC[C@H](C(=O)N[C@@H](CCCCCS)C(=O)Nc2ccccc2)N1 | 107 | 10 | 34 | 6 | 32 | 10 | 5
20 | O=C(CCCCCCS)NCc1ccc(C(F)(F)F)cc1 | 373 | 2070 | 19400 | 2710 | 6290 | 5960 | 5300
21 | O=C1CCC[C@@H](C(=O)N[C@@H](CCCCCS)C(=O)NCc2cccc(OCc3ccccc3)c2)N1 | 9 | 293 | 2540 | 495 | 658 | 504 | 83
22 | Cc1ccc(NC(=O)[C@H](CCCCCS)NC(=O)[C@@H]2CCCC(=O)N2)cc1 | 360 | 3 | 60 | 3 | 4 | 8 | 2
